Source: publication PMC9989471, “The Key Roles of Mycobacterium tuberculosis FadD23 C-terminal Domain in Catalytic Mechanisms” (Frontiers in Microbiology, 2023)

Legend:
FadD23 [1] = biological target: T1, FadD23 (Mycobacterium tuberculosis, UniProt P9WQ47); assay: SPR; also crystal structure with AMP-PNP, MS, DSF and hydroxamate-MesG assay; assay type: binding
T1 construct: full-length

CCCCCCCCCCCC(=O)O = assay: purified protein; conditions: ATP, Mg2+
FadD23 [2] = biological target: T1, FadD23; assay: crystal structure ([…] Å), formed from ATP and palmitic acid; assay type: binding
FadD23 [3] = biological target: T1, FadD23; assay: crystal structure ([…] Å), with palmitic acid bound; assay type: binding
FadD23 [4] = biological target: T1, FadD23; assay: SPR; assay type: binding

T1 sequence (P9WQ47 whole entry): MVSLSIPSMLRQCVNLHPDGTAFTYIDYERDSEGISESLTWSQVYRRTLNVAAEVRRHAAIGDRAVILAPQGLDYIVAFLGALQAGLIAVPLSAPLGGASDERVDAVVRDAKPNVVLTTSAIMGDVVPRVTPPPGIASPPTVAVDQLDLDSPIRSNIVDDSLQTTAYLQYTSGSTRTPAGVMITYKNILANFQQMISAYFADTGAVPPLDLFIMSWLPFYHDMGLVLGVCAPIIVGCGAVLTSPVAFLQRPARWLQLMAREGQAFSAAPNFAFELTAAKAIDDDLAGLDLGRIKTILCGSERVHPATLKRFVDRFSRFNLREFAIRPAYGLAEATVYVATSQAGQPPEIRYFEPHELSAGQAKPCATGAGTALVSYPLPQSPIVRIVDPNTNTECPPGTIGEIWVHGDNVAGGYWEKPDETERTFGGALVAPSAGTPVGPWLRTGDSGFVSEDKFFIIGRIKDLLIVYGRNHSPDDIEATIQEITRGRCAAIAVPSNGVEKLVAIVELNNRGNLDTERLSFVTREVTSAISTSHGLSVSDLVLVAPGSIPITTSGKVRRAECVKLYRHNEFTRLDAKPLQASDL

## CCCCCCCCCCCCCCCC(=O)O [palmitic acid]
FadD23 [1]
  Kd: 34.5 µM

## FadD23 (Mycobacterium tuberculosis H37Rv)
CCCCCCCCCCCC(=O)O
  Km: 33.56 ± 5.40 µM
  Vmax: 0.00108 µmol/min
  kcat: 0.00239 s⁻¹
  kcat/Km: 71.2 M⁻¹ s⁻¹

## CCCCCCCCCCCCCCCC(=O)OP(=O)(O)OC[C@H]1O[C@@H](n2cnc3c(N)ncnc32)[C@H](O)[C@@H]1O [AMP-C16, hexadecanoyl adenylate]
FadD23 [2]
  crystal structure (2.68 Å), formed from ATP and palmitic acid: FadD23 catalyzed the hydrolysis of ATP and connected AMP with palmitic acid to generate a molecule of AMP-C16.

## Nc1ncnc2c1ncn2[C@@H]1O[C@H](CO[P@](=O)(O)O[P@](=O)(O)NP(=O)(O)O)[C@@H](O)[C@H]1O [AMP-PNP]
FadD23 [3]
  crystal structure (2.25 Å), with palmitic acid bound: In the AMP-PNP-FadD23 complex, the O27 of AMP-PNP interacted with NE of Arg460 through hydrogen bond

## Nc1ncnc2c1ncn2[C@@H]1O[C@H](COP(=O)(O)OP(=O)(O)OP(=O)(O)O)[C@@H](O)[C@H]1O [ATP]
FadD23 [4]
  Kd: ~1 µM
